From PubChem BioAssay AID1996
Values after ≈ are worked out from the molar mass of the structure shown.

details: buffer; pH 7.4; 200.0 µM

Row | Compound | solubility kinetic
1 | CC1(C)NC(=O)N(Cc2cc(=O)n3ccsc3n2)C1=O | > 43.8 µg/mL
2 | Cc1cccc(C)c1NC(=O)N1CCC(C(=O)c2ccc(F)cc2)CC1 | 15.4 µg/mL (≈ 43.5 µM)
3 | COc1ccc(CNc2nc3ccccc3n2C)c(OC)c1 | > 44.6 µg/mL
4 | O=C(NCc1ccc(Cl)cc1)C1CCCO1 (stereo not given) | > 36 µg/mL
5 | COc1ccc(NCC(=O)Nc2cccc(S(=O)(=O)N3CCCC3)c2)cc1Cl | 13.6 µg/mL (≈ 32.1 µM)
6 | COc1ccc(OC)c(N(CC(=O)Nc2cccc3ccccc23)S(C)(=O)=O)c1 | 43 µg/mL (≈ 104 µM)
7 | CN(C(=O)Nc1ccc(C(C)(C)C)cc1)C1CCCCC1 | < 0.3 µg/mL
8 | COCC(=O)Nc1c(C(=O)N2CCCC2)oc2ccccc12 | 40.4 µg/mL (≈ 134 µM)
9 | Cc1ccc(C(=O)NC(C)c2ccc(-n3ccnc3)cc2)cc1 (stereo not given) | > 45.8 µg/mL
10 | Cc1ccc(CSCC(=O)NCc2ccc3c(c2)OCO3)cc1 | 11.5 µg/mL (≈ 34.9 µM)
11 | CC(C)n1c(COc2ccccc2)nc2ccccc21 | 24.1 µg/mL (≈ 90.5 µM)
12 | CC(OC(=O)CSc1ccc(F)cc1)C(=O)NC1(C#N)CCCCC1 (stereo not given) | 42.2 µg/mL (≈ 116 µM)
13 | C=CCOc1ccc(/C=C2\SC(=S)N(CCC(=O)O)C2=O)cc1 | 48 µg/mL (≈ 137 µM)
14 | CCOC(=O)C1=C(O)/C(=C/c2cc(C)n(-c3ccccc3)c2C)N=C1C | 30.7 µg/mL (≈ 87.6 µM)
15 | O=C(O)C1CCCN(S(=O)(=O)c2ccc(Br)s2)C1 (stereo not given) | 52.1 µg/mL (≈ 147 µM)
16 | CC1(C)Cc2cccc(C(=O)NCc3ccco3)c2O1 | 32.9 µg/mL (≈ 121 µM)
17 | CC(=O)N1CCn2c3c(c4cc(C)ccc42)CCCC31 (stereo not given) | 38.6 µg/mL (≈ 144 µM)
18 | CCCC(=O)Nc1ccc(S(=O)(=O)Nc2nccs2)cc1 | 30.4 µg/mL (≈ 93.4 µM)
19 | Nc1nc(COc2ccccc2C=O)nc(Nc2ccccc2)n1 | 32.5 µg/mL (≈ 101 µM)
20 | O=C(c1ccccc1F)N1CCN(c2ccccn2)CC1 | > 42.8 µg/mL

Row | Compound | solubility kinetic
21 | Cc1cccc(C)c1NC(=S)N1CCC(c2ccccc2)C1 (stereo not given) | 34.1 µg/mL (≈ 110 µM)
22 | CC(C)(CN1CCCC1)NS(=O)(=O)c1ccccc1.Cl | > 47.8 µg/mL
23 | CSc1cc(C)c(OCC(=O)Nc2ccc(NC(C)=O)cc2)c(C)c1 | 4.4 µg/mL (≈ 12.3 µM)
24 | COc1ccc(C(=O)NCCNC(=O)c2ccccn2)cc1 | > 44.9 µg/mL
25 | Cc1ccc(C(=O)NCC(=O)Nc2ccncc2)cc1C | 12.3 µg/mL (≈ 43.4 µM)
26 | COc1ccc(CCNC(=O)c2ccc(Cl)nc2)cc1 | 36.5 µg/mL (≈ 126 µM)
27 | Nc1ccccc1Sc1c[nH]c2ccccc12 | 27.8 µg/mL (≈ 116 µM)
28 | COc1ccc(NC(=O)CNC(=O)Cc2ccccc2)cc1OC | > 49.3 µg/mL
29 | O=c1[nH]c(NCCO)nnc1Cc1ccccc1 | > 36.9 µg/mL
30 | CCNC(=S)N1CCN(S(=O)(=O)/C=C/c2ccccc2)CC1 | 4.2 µg/mL (≈ 12.4 µM)
31 | COc1ccc(NC(=O)COC(=O)CN2C(=O)C3CC=CCC3C2=O)c([N+](=O)[O-])c1 (stereo not given) | > 62.6 µg/mL
32 | Oc1ccc(N2CCN(Cc3nc4ccccc4[nH]3)CC2)cc1 | > 46.3 µg/mL
33 | O=C(/C=C/c1ccco1)Nc1ccc2c(c1)OCO2 | 36.8 µg/mL (≈ 143 µM)
34 | COc1ccc(CNS(=O)(=O)NCc2ccccc2F)cc1 | 22.3 µg/mL (≈ 68.7 µM)
35 | Cc1cccc(C)c1NC(=O)Cn1c(=O)c(N2CCCCC2)c(N)n(C)c1=O | > 57.8 µg/mL
36 | O=C(Nc1cc(S(=O)(=O)Nc2ccccc2F)ccc1Cl)c1ccc(F)cc1F | 2.5 µg/mL (≈ 5.67 µM)
37 | O=C(CCN1N=C(c2ccccc2)CCC1=O)NC1CCCC1 | > 47 µg/mL
38 | CCOc1cc(C(=O)NC(C)CCc2ccccc2)cc(OCC)c1OCC (stereo not given) | 0.8 µg/mL (≈ 2.08 µM)
39 | CCn1ccnc1CN(C)Cc1nc(-c2ccccc2)no1 | 31.7 µg/mL (≈ 107 µM)
40 | COc1cc2cc(C(=O)NCCc3ccccc3)[nH]c2cc1OC | 1 µg/mL (≈ 3.08 µM)

Row | Compound | solubility kinetic
41 | CN(C)C(=O)c1ccccc1NC(=O)Cc1cccc2ccccc12 | 49.8 µg/mL (≈ 150 µM)
42 | COc1cccc(N=Cc2c(O)n(Cc3ccco3)c(=O)[nH]c2=O)c1 | 6.1 µg/mL (≈ 17.9 µM)
43 | COc1ccc(N2CCc3c(C)nc4c(OC)cc(OC)cc4c32)cc1 | > 52.6 µg/mL
44 | CN1C(CC(=O)Nc2ccc(Cl)cc2Cl)c2ccccc2CC1(C)C (stereo not given) | 10 µg/mL (≈ 26.5 µM)
45 | C=CCSc1nc(=O)n2ccc(C)cc2n1 | 31.7 µg/mL (≈ 136 µM)
46 | O=C1CC(NC(=O)c2ccc(Cl)cc2)C(=O)N1 (stereo not given) | > 37.9 µg/mL
47 | CC(=O)c1cccc(Nc2cc(C)nc3c(C)cccc23)c1.Cl | > 49 µg/mL
48 | COc1ccc(NS(=O)(=O)c2cn(C)cn2)cc1Cl | 17 µg/mL (≈ 56.3 µM)
49 | C[C@H](NC(=O)N1CCC(Cc2ccccc2)CC1)C(=O)O | > 43.6 µg/mL
50 | O=C1NC(=O)N(Cc2ccc(F)cc2)C(=O)/C1=C\c1ccoc1 | 46.6 µg/mL (≈ 148 µM)
51 | Cc1ccc(N2CN(CCc3ccccc3)CNC2=S)cc1 | 6.5 µg/mL (≈ 20.9 µM)
52 | O=C(Nc1cccc(Cl)c1)N1CCc2ccccc2C1 | 1.9 µg/mL (≈ 6.63 µM)
53 | N#C/C(=C\Nc1ccc(F)c(Cl)c1)S(=O)(=O)c1ccccn1 | 42 µg/mL (≈ 124 µM)
54 | C/C(=N\NC(=O)c1cccc([N+](=O)[O-])c1)c1cccnc1 | > 42.6 µg/mL
55 | COc1cc(C=O)ccc1OC(=O)c1cccnc1 | 33.7 µg/mL (≈ 131 µM)
56 | O=C(Nc1ccc(F)cc1)Nc1ccc2ccccc2n1 | < 0.2 µg/mL
57 | CN(C)CCCCOc1ccccc1F.O=C(O)C(=O)O | 17.2 µg/mL
58 | CC(C)(C)SCCNC(=O)/C=C/c1ccccc1 | 33.9 µg/mL (≈ 129 µM)
59 | CCc1nc2ccccc2c(C(=O)OCC(=O)N(C)Cc2ccccc2)c1C | 4.9 µg/mL (≈ 13 µM)
60 | CCOC(=O)c1cnc(COc2ccccc2Cl)[nH]c1=O | > 46.3 µg/mL
